Patent US4606908A, “Methods and compositions for plasma and organ imaging” (Washington Research Foundation, priority 1983, dated 1986)

Test system: isolated rabbit hearts
Assay: extraction and retention of tracer in isolated perfused rabbit hearts (indicator dilution, coronary sinus outflow)
Parameters: species or system New Zealand white rabbits
Settings: isolated rabbit heart
Experimental: For isolated heart studies, after anesthesia with pentobarbital, the hearts were removed from 2 to 3 kg New Zealand white rabbits and mounted on a perfusion system in which the flow was controlled and the perfusion pressure monitored. The perfusate was (mM): Na 142, K 5.4, Mg 1.0, Ca 2.0, Cl 141, HCO3 12, PO4 0.435, glucose 11.0, and insulin 2 units/L, at 37° C. The coronary sinus flow and Thebesian flow into the right ventricle were collected via cannula placed through the pulmonary artery and a total effluent flow measured with graduated cylinder and stopwatch. Reference and test tracers were simultaneously injected as a mixed bolus into the aortic cannula, which supplied only the coronary system. Samples of the coronary sinus effluent were taken from the cannulated pulmonary artery at intervals of 1, 2, 4 or 10 seconds; higher sampling rates were used during the first part of the curves. The outflow of response was calculated as the fraction of dose emerging per unit time, h(t), at each time t:
F is the perfusate flow ml×s^-1 ;
C(t) is the concentration of tracer, cpm/ml; and
q0 is the injected dose of tracer, cpm.

CNCCCN1c2ccccc2CCc2ccc([125I])cc21 [^125 I-DMI]
retentions at 10-20 min (10-20 min): about 80%
maximal instantaneous extractions (37° C., plasma flows up to 1.5 ml/min×g): 96%
Overall retentions at 1 min (1 min, minimum value, indicator possibly impure): about 91%
